Laboratory results published in patent US8293979B2, “Weed controller metabolism proteins, genes, thereof and use of the same” (Sumitomo Chemical Company, Limited, priority 2001, dated 2012).

Experiments:
Ivyleaf morningglory [1] = assay: Herbicidal activity test, foliage treatment; format: in vivo, Ipomoea hederacea; parameters: key: 0: situations in which the condition of sprouting or vegetation at the time of examination of the plant utilized for the test was compared with and showed totally or substantially no difference with that of the untreated application; 10: situations in which the plant completely withered or the sprouting or vegetation was completely suppressed; settings: sprayed onto the foliage of plants cultivated 10 days, investigated after 16 days in a greenhouse
Protocol: (§1) Soil was packed into a round plastic pot having a diameter of 10 cm and depth of 10 cm. Barnyardgrass, Blackgrass, Ivyleaf morningglory were seeded and cultivated in a greenhouse for 10 days. Five (5) parts of the test compound, 6 parts of sorpol3005X (Toho Chemical Company) and 89 parts of xylene were well mixed to produce an emulsion. A certain amount thereof was diluted with water containing 0.1% (v/v) of a sticking agent at a proportion of 1000 L for 1 hectare and was spread uniformly with a spray-gun onto the all sides of the foliage from above the plant cultivated in the above pot. After cultivating the plants for 16 days in a greenhouse, the herbicidal activity of the test compound was investigated.
(§2) In the above Tables 3 and 4, the strength of the herbicidal activity is shown stepwise as 0, 1, 2, 3, 4, 5, 6, 7, 8, 9, and 10.

Blackgrass [2] = assay: Herbicidal activity test, soil surface treatment; format: in vivo, Alopercurus myosuroides; parameters: key: 0: situations in which the condition of sprouting or vegetation at the time of examination of the plant utilized for the test was compared with and showed totally or substantially no difference with that of the untreated application; 10: situations in which the plant completely withered or the sprouting or vegetation was completely suppressed; settings: 500 g/ha, sprayed onto the surface of the soil after seeding, investigated after 19 days in a greenhouse
Protocol: as §1, with “seeded.” for “seeded and cultivated in a greenhouse for 10 days.”, “surface” for “all sides”, “soil.” for “foliage from above the plant cultivated in the above pot.”, “19” for “16”, “activity” for “activity of the test compound”
as §2

Blackgrass [3] = assay: Herbicidal activity test, foliage treatment; format: in vivo, Alopercurus myosuroides; parameters: key: 0: situations in which the condition of sprouting or vegetation at the time of examination of the plant utilized for the test was compared with and showed totally or substantially no difference with that of the untreated application; 10: situations in which the plant completely withered or the sprouting or vegetation was completely suppressed; settings: sprayed onto the foliage of plants cultivated 10 days, investigated after 16 days in a greenhouse
Protocol: as §1, §2

Barnyardgrass [4] = assay: Herbicidal activity test, soil surface treatment; format: in vivo, Echinochloa crus-galli; parameters: key: 0: situations in which the condition of sprouting or vegetation at the time of examination of the plant utilized for the test was compared with and showed totally or substantially no difference with that of the untreated application; 10: situations in which the plant completely withered or the sprouting or vegetation was completely suppressed; settings: 500 g/ha, sprayed onto the surface of the soil after seeding, investigated after 19 days in a greenhouse
Protocol: as §1, with “seeded.” for “seeded and cultivated in a greenhouse for 10 days.”, “surface” for “all sides”, “soil.” for “foliage from above the plant cultivated in the above pot.”, “19” for “16”, “activity” for “activity of the test compound”
as §2

Ivyleaf morningglory [5] = assay: Herbicidal activity test, soil surface treatment; format: in vivo, Ipomoea hederacea; parameters: key: 0: situations in which the condition of sprouting or vegetation at the time of examination of the plant utilized for the test was compared with and showed totally or substantially no difference with that of the untreated application; 10: situations in which the plant completely withered or the sprouting or vegetation was completely suppressed; settings: 500 g/ha, sprayed onto the surface of the soil after seeding, investigated after 19 days in a greenhouse
Protocol: as §1, with “seeded.” for “seeded and cultivated in a greenhouse for 10 days.”, “surface” for “all sides”, “soil.” for “foliage from above the plant cultivated in the above pot.”, “19” for “16”, “activity” for “activity of the test compound”
as §2

Barnyardgrass [6] = assay: Herbicidal activity test, foliage treatment; format: in vivo, Echinochloa crus-galli; parameters: key: 0: situations in which the condition of sprouting or vegetation at the time of examination of the plant utilized for the test was compared with and showed totally or substantially no difference with that of the untreated application; 10: situations in which the plant completely withered or the sprouting or vegetation was completely suppressed; settings: sprayed onto the foliage of plants cultivated 10 days, investigated after 16 days in a greenhouse
Protocol: as §1, §2

[7] = test system: present invention protein (A1); format: in vitro ADME, Streptomyces phaeochromogenes IFO12898; settings: E. coli JM109/pKSN657F cell suspension, compound at 100 ppm, shaking at 30° C., ethyl acetate layer, HPLC
Protocol: E. coli JM109/pKSN657F was cultured overnight at 37° C. in 3 ml of TB medium containing 50 μg/ml of ampicillin. A milliliter (1 ml) of the obtained culture medium was transferred to 100 ml of TB medium containing 50 μg/ml of ampicillin and cultured at 26° C. When OD660 reached about 0.5, 5-aminolevulinic acid was added to the final concentration of 500 μM, and the culturing was continued. Thirty (30) minutes thereafter, IPTG was added to a final concentration of 1 mM, and there was further culturing for 20 hours.
The cells were recovered from the culture medium, washed with 0.1M tris-HCl buffer (pH7.5) and suspended in 10 ml of 0.1M Tris-HCl buffer containing 1% glucose. Compound (VI) was added to the obtained cell suspension to a final concentration of 100 ppm and that was incubated with shaking at 30° C. At each of 0 hours after and 1 day after the start of shaking, 2 ml of the cell suspension were fractioned. Fifty microliters (50 μl) of 2N HCl were added to each and those were extracted with 2 ml of ethyl acetate. The obtained ethyl acetate layers were analyzed on a HPLC under reaction condition 1. Compared to the concentration of compound (VI) detected from the ethyl acetate layer prepared from the cell suspension at 0 hours after the start of shaking, the concentration of compound (VI) detected from the ethyl acetate later prepared from the cell suspension at 1 day after the start of shaking was lower. Further a peak, which was not detected from the ethyl acetate layer prepared from the cell suspension at 0 hours after the start of shaking, was detected from the ethyl acetate layer prepared from the cell suspension at 1 day after the start of shaking Mass spectrometry of the compound contained in said peak was conducted. […]
Other than utilizing compound (VIII) instead of compound (VI), there was conducted in accordance with the method described in Example 41(6), a culturing of E. coli JM109/pKSN657F, preparation of the cell suspension solution, incubation with shaking of the cell suspension solution to which compound (VIII) was added, reagent preparation from the cell suspension solution and HPLC analysis of the reagents. Compared to the concentration of compound (VIII) detected from the ethyl acetate layer prepared from the cell suspension at 0 hours after the start of shaking, the concentration of compound (VIII) detected from the ethyl acetate layer prepared from the cell suspension at 1 day after the start of shaking was lower. Further two peaks, which were not detected from the ethyl acetate layer prepared from the cell suspension at 0 hours after the start of shaking, were detected from the ethyl acetate layer prepared from the cell suspension at 1 day after the start of shaking Mass spectrometry of the compounds contained in said peaks were conducted. […]

[8] = test system: present invention protein (A1); assay: Metabolism of compounds by the present invention protein (A1), reaction solution, HPLC; format: in vitro ADME, Streptomyces phaeochromogenes IFO12898; settings: 12.5 ppm of compound, components A, B, C, 20 μl supernatant fraction of Example 4(2), 30° C. for 10 minutes
Protocol: There was prepared 100 μl of a reaction solution of 50 mM potassium phosphate buffer (pH7.0) containing 5 ppm of compound (XII), 3 mM of […] (hereinafter, referred to as “component A”) (Oriental Yeast Company), 1 mg/ml of a ferredoxin derived from spinach (hereinafter referred to as “component B”) (Sigma Company), 0.15 U/ml of ferredoxin reductase (hereinafter, referred to as “component C”) (Sigma Company) and 20 μl of the supernatant fraction recovered in Example 4(2). The reaction solution was maintained at 30° C. for 10 minutes. Further, there was prepared and maintained similarly 100 μl of a reaction solution of a 50 mM potassium phosphate buffer (pH 7.0) having no addition of at least one component utilized in the composition of the above reaction solution, selected from component A, component B, component C and the supernatant fraction prepared in Example 4(2). Ten microliters (10 μl) of 2N HCl and 500 μl of ethyl acetate were added and mixed into each of the reaction solutions after the maintenance. The resulting reaction solutions were centrifuged at 8,000×g to recover 490 μl of the ethyl acetate layer. After drying the ethyl acetate layers under reduced pressure, the residue was dissolved in 100 μl of 50 mM of potassium phosphate buffer (pH7.0). Forty microliters (40 μl) of the fraction solutions (hereinafter, the fraction solution derived from the reaction solution containing component A, component B, component C and 20 μl of supernatant fraction recovered in Example 4(2) is referred to as “(XII) metabolism solution (A1);” further, the fraction solution derived from the reaction solution containing no component A, no component B, no component C and no supernatant fraction recovered in Example 4(2) is referred to as “(XII) control solution (A1)”) were analyzed on a HPLC. Compared to the concentration of compound (XII) detected from (XII) control solution (A1), the concentration of compound (XII) detected from (XII) metabolism solution (A1) was lower. Further a peak, which was not detected from the (XII) control solution (A1), was detected from the (XII) metabolism solution (A1). Mass spectrometry was conducted for the compound contained in such a peak. The mass of the compound contained in such a peak was 14 smaller than the mass of compound (XII).
Other than utilizing 5 ppm of compound (XIII) instead of 5 ppm of compound (XII), reaction solutions were prepared and maintained similarly to the method described in Example 41(2). […] Compared to the concentration of compound (XIII) detected from (XIII) control solution (A1), the concentration of compound (XIII) detected from (XIII) metabolism solution (A1) was lower. Further a peak, which was not detected from the (XIII) control solution (A1), was detected from the (XIII) metabolism solution (A1). […]

[9] = test system: present invention protein (A11); assay: Metabolism of compounds by the present invention protein (A11), reaction solution, HPLC; format: in vitro ADME, Streptomyces nogalator IFO13445; settings: 12.5 ppm of compound, components A, B, C, 20 μl supernatant fraction of Example 32(2), 30° C. for 10 minutes
Protocol: There was prepared 100 μl of a reaction solution of 50 mM potassium phosphate buffer (pH7.0) containing 5 ppm of compound (XII), 3 mM of […] (hereinafter, referred to as “component A”) (Oriental Yeast Company), 1 mg/ml of a ferredoxin derived from spinach (hereinafter referred to as “component B”) (Sigma Company), 0.15 U/ml of ferredoxin reductase (hereinafter, referred to as “component C”) (Sigma Company) and 20 μl of the supernatant fraction recovered in Example 4(2). The reaction solution was maintained at 30° C. for 10 minutes. Further, there was prepared and maintained similarly 100 μl of a reaction solution of a 50 mM potassium phosphate buffer (pH 7.0) having no addition of at least one component utilized in the composition of the above reaction solution, selected from component A, component B, component C and the supernatant fraction prepared in Example 4(2). Ten microliters (10 μl) of 2N HCl and 500 μl of ethyl acetate were added and mixed into each of the reaction solutions after the maintenance. The resulting reaction solutions were centrifuged at 8,000×g to recover 490 μl of the ethyl acetate layer. After drying the ethyl acetate layers under reduced pressure, the residue was dissolved in 100 μl of 50 mM of potassium phosphate buffer (pH7.0). Forty microliters (40 μl) of the fraction solutions (hereinafter, the fraction solution derived from the reaction solution containing component A, component B, component C and 20 μl of supernatant fraction recovered in Example 4(2) is referred to as “(XII) metabolism solution (A1);” further, the fraction solution derived from the reaction solution containing no component A, no component B, no component C and no supernatant fraction recovered in Example 4(2) is referred to as “(XII) control solution (A1)”) were analyzed on a HPLC. Compared to the concentration of compound (XII) detected from (XII) control solution (A1), the concentration of compound (XII) detected from (XII) metabolism solution (A1) was lower. Further a peak, which was not detected from the (XII) control solution (A1), was detected from the (XII) metabolism solution (A1). Mass spectrometry was conducted for the compound contained in such a peak. […]
Other than utilizing 20 μl of the supernatant fraction recovered in Example 32(2) instead of 20 μl of the supernatant fraction recovered in Example 4(2), the reaction solutions were prepared and maintained in accordance with the method described in Example 41(2). […] Compared to the concentration of compound (XII) detected from (XII) control solution (A11), the concentration of compound (XII) detected from (XII) metabolism solution (A11) was lower. Further a peak, which was not detected from the (XII) control solution (A11), was detected from the (XII) metabolism solution (A11). […]

In the case of C[C@@H](Oc1cc(-n2c(=O)cc(C(F)(F)F)[nH]c2=O)c(F)cc1Cl)C(=O)O [compound (III)], the “Herbicidal Activity Ivyleaf Morningglory” value (Ivyleaf morningglory [1]; 125 g/ha) is reported as 0, the “Herbicidal Activity Ivyleaf Morningglory” value (Ivyleaf morningglory [1]; 500 g/ha) is reported as 0 and the “Herbicidal Activity Blackgrass” value (Blackgrass [2]) is reported as 0. The “Herbicidal Activity Blackgrass” value (Blackgrass [3]; 125 g/ha) was 0, the “Herbicidal Activity Blackgrass” value (Blackgrass [3]; 500 g/ha) was 0 and the “Herbicidal Activity Barnyardgrass” value (Barnyardgrass [4]) was 0. For the same compound, the “Herbicidal Activity Ivyleaf Morningglory” value (Ivyleaf morningglory [5]) was 0, the “Herbicidal Activity Barnyardgrass” value (Barnyardgrass [6]; 125 g/ha) was 0 and the “Herbicidal Activity Barnyardgrass” value (Barnyardgrass [6]; 500 g/ha) was 0.
For CCc1ccc(COc2ccc(-n3c(=O)cc(C(F)(F)F)n(C)c3=O)cc2)c(OC(C)C(=O)OC)c1 (stereo not shown) [compound (VI)], the “concentration of the compound detected from the cell suspension at 1 day compared to 0 hours after the start of shaking” value [7] was “lower”.
For COC(=O)C1(C)Cc2c(c(Cl)cc(F)c2-n2c(=O)cc(C(F)(F)F)n(C)c2=O)O1 (stereo not shown) [compound (VIII)], the “concentration of the compound detected from the cell suspension at 1 day compared to 0 hours after the start of shaking” value [7] was “lower”.
C#CCN1C(=O)COc2ccc(-n3c(=O)cc(C(F)(F)F)n(C)c3=O)cc21 [compound (XI)] was tested, and the “concentration of the compound detected from the cell suspension at 1 day compared to 0 hours after the start of shaking” value [7] was “lower”.
COC(=O)CO/C(C)=C(/Oc1cc(-n2c(=O)cc(C(F)(F)F)n(C)c2=O)c(F)cc1Cl)C(=O)O [compound (XVI)] was tested, and the “concentration of the compound detected from metabolism solution (A1) compared to control solution (A1)” value [8] was “lower” and the “concentration of the compound detected from metabolism solution (A11) compared to control solution (A11)” value [9] was “lower”.
Cn1c(C(F)(F)F)cc(=O)n(-c2c(F)cc(Cl)c3oc(C(=O)O)cc23)c1=O [compound (XVII)] was tested, and the “concentration of the compound detected from metabolism solution (A1) compared to control solution (A1)” value [8] was “lower” and the “concentration of the compound detected from metabolism solution (A11) compared to control solution (A11)” value [9] was “lower”.
